# Source: patent publication US20240299557A1, “COMPOUND FOR DEGRADING DEOXYRIBONUCLEIC ACID (DNA) POLYMERASE, AND USE THEREOF” (TAIBIDI PHARMACEUTICAL TECHNOLOGY (SHIJIAZHUANG) CO., LTD., priority 2021, published 2024)
# Where a SMILES comes first, the peptide text is derived from it. The star is where a group is joined. Cbz = O=C(OCc1ccccc1)*
# Assays:
# HBV [1] = test: Inhibition of HBV virus replication in HepG2.2.15 cells (HBV DNA level in supernatant); assay type: cell-based, hepatitis B virus; conditions: after 7 days of administration, P≤0.001 vs blank group
# Description: In vitro cell model 1: HepG2 cells transfected with hepatitis B virus (HBV), namely HepG2 2.2.15 cells.
# (§1) Positive drug control: entecavir (ETV).
# (§2) Experimental procedure: HepG2.2.15 cells and stable toxigenic HepAD38 cells were divided into six experimental groups. The number of cells in each well was 7×10^4, and the amount of medium in each well was 500 μl. The first group was a blank control, the second group was a positive control, and 3.75 nM ETV was added; the third to sixth groups were added with 3.75 nM, 100 nM, 5 μM and 100 μM compound (I, TPD00203). The supernatant was collected on the 3rd day after administration and the HBV DNA level in the supernatant was detected. On the seventh day, the supernatant was collected again and the cells were pelleted, and the level of HBV DNA in the supernatant was detected.
# HBV [2] = test: Inhibition of HBV virus replication in HepAD38 cells (HBV DNA level in supernatant); assay type: cell-based, hepatitis B virus; conditions: for inhibition of virus replication: all tested dose levels 10 nM, P≤0.001; for inhibitory effect on virus replication: after 7 days, TPD00203 each dose group (3.75 nM, 100 nM, 5 μM, 100 μM), ETV 3.75 nM; for inhibition at 0.01 µM / inhibition at 0.1 µM / inhibition at 1 µM / inhibition at 10 µM: Hepatitis B virus, HepAD38 cell line, read-out: Antiviral activity of the compound at different concentrations; for inhibition at 1 µM: 1000 nM; for inhibition at 10 µM: 10000 nM
# Description: In vitro cell model 2: Stable toxigenic HepAD38 cells.
# as §1, §2
# After the preliminary evaluation of the virus-inhibiting effect of TPD00203, the inhibitory effects of the same dose of TPD00203 and ETV were determined in HepAD38 cell line. ETV and TPD00203 were 4 dose groups of 10 nM, 100 nM, 1 μM, and 10 μM.
# The inhibitory activity of compounds (I-X) on the virus in HepAD38 cell line was determined by the same method as in Example 6, and the results were shown in the following table.
# HBV P protein = target: T1, HBV P protein (Hepatitis B virus genotype D subtype ayw, UniProt P03156); test: Degradation of flag-tagged HBV P protein in transfected Huh7 cells (Western Blot); assay type: cell-based
# T1 construct: flag; expressed in transfected cells; host or cells: Huh7
# T1 sequence (P03156 whole entry): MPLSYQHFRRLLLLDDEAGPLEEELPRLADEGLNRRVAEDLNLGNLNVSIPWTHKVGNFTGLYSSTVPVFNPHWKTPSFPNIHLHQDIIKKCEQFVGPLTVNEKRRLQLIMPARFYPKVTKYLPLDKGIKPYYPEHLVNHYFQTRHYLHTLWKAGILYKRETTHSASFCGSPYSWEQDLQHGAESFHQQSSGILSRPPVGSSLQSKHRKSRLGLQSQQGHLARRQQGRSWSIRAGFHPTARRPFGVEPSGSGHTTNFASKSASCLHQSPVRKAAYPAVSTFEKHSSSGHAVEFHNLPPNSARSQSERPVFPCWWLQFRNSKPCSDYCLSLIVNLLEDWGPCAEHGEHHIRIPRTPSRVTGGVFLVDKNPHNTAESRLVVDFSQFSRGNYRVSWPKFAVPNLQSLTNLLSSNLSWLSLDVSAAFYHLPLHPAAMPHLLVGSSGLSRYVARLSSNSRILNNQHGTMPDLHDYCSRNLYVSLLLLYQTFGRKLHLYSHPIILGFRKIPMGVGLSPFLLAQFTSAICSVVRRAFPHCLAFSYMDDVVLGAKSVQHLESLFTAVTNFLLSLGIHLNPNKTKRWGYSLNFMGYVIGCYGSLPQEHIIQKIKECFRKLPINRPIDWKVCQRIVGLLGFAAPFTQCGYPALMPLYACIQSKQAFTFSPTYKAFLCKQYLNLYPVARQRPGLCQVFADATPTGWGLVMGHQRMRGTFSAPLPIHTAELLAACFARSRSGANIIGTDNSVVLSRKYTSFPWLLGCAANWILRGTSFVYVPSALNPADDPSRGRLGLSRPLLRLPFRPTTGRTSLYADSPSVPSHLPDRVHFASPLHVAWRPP
# Description: In vitro cell model: Huh7.
# Proteasome inhibitor: MG132
# The Huh7 cells cultured in the medium containing 10 μM TPD00203 drug were used to transfect the flag-tagged P protein overexpression plasmid, and the medium containing 10 μM TPD00203 drug was changed 6 hours after transfection, and MG132 (final concentration 10 μM) was added 24 hours after transfection to inhibit the degradation of P protein, and cells were harvested after MG132 treatment for 12 hours. MG132 is a reversible proteasome inhibitor. After MG132 was removed, the cells were cultured in a medium containing 10 μM TPD00203 for 12 hours, and the cells were harvested. The expression of P protein was detected by Western Blot experiment. DMSO was used as a control.
# [3] = target: T2, HBV P protein (DNA polymerase) (Hepatitis B virus genotype D subtype ayw, UniProt P03156); test: Degradation of HBV P protein (DNA polymerase) in Huh7-HBP cell line (Nano-Glo HiBiT/LgBiT luminescence); assay type: cell-based; conditions: read-out: Degradation activity of DNA polymerase at different concentrations of compounds; for inhibition at 0.1 µM: 100 nM; for inhibition at 0.3 µM: 300 nM; for inhibition at 1 µM: 1000 nM; for inhibition at 3 µM: 3000 nM; for inhibition at 10 µM: 10000 nM
# T2 construct: expressed in transfected cells; host or cells: Huh7-LgBiT cells transduced with pLVX-HBP-Puro lentivirus (Huh7-HBP)
# T2 sequence (P03156 whole entry): as above
# Description: The transfected huh-7-HBP cell line was digested and suspended, 100 μl of cell suspension was added to each well of a 96-well plate at a concentration of 2×10^5/ml, and incubated overnight. 10 μl of drug was added to each well according to the pre-set dose, and each dose of each drug should be at least two replicate wells. After shaking gently, the cell suspension was put back into the incubator, and incubated for 1-24 h according to the specific situation. Nano-Glo@ LCS Dilution Buffer and Nano-Glo@ Live Cell Substrate two reagents in the Nano-Glo@Live Cell Assay System kit were mixed at a ratio of 20:1, and added to the cell plate to be tested at a ratio of 25 ul per 100 ul system. After shaking for 30 seconds, full wavelength luminosity was measured using BMG Labtech FLUOstar Omega ELIASA. The higher the luminescence value, the higher the HBP content of the target protein.
# According to method 1, the degradation effect of target compounds I-X on HBV P protein at 5 different concentrations was determined.
# [4] = HepAD38 cells, 7 days, 100 nM, 1 μM, 10 μM
SMILES,inhibitory effect on virus replication (HBV [1]; 3.75 nM),inhibitory effect on virus replication (HBV [1]; 5 μM),inhibitory effect on virus replication (HBV [1]; 100 μM),"virus-inhibiting effect compared with ETV at the same dose (HBV [2]; HepAD38 cells, 7 days, 10 nM, 100 nM, 1 μM, 10 μM)",inhibition of virus replication (HBV [2]; [4]),inhibitory effect on virus replication (HBV [2]; HepAD38 cells),inhibition at 0.01 µM (HBV [2]; 10 nM),inhibition at 0.1 µM (HBV [2]; 100 nM),inhibition at 1 µM (HBV [2]),inhibition at 10 µM (HBV [2]),"P protein degradation (Western Blot) (HBV P protein; Huh7 cells transfected with flag-Polymerase plasmid, 10 μM TPD00203, 36 hours after transfection)",inhibition at 0.1 µM [3],inhibition at 0.3 µM [3],inhibition at 1 µM [3],inhibition at 3 µM [3],inhibition at 10 µM [3],"effect of proteasome inhibitor on drug-induced P protein degradation (HBV P protein; Huh7 cells, MG132 final concentration 10 μM added 24 hours after transfection, with 10 μM TPD00203)"
C=C1[C@H](CO)[C@H](O)C[C@@H]1n1cnc2c(OCCCCCCCCCC(=O)N[C@H](C(=O)N3C[C@H](O)C[C@H]3C(=O)NCc3ccc(-c4scnc4C)cc3)C(C)(C)C)nc(N)nc21 [Compound I],significant inhibition of viral replication,significant inhibition of viral replication,significant inhibition of viral replication,better virus-inhibiting effect than ETV,significantly inhibit virus replication,significant inhibitory effect on virus replication,> 60%,> 60%,> 60%,> 60%,promote P protein degradation,< 30%,30 to 70%,30 to 70%,> 70%,> 70%,
"C=C1[C@H](CNC(=O)CCCCCCCCC(=O)N[C@H](C(=O)N2C[C@H](O)C[C@H]2C(=O)NCc2ccc(-c3scnc3C)cc2)C(C)(C)C)[C@H](O)C[C@@H]1n1cnc2c(=O)[nH]c(N)nc21 [Compound VI, N1-(((1R,3S)-3-(2-amino-6-oxo-1,6-dihydro-9H-purin-9-yl)-5-hydroxy-2-methylenecyclopentyl)methyl)-N10-((S)-1-((2S,4R)-4-hydroxy-2-((4-(4-methylthiazol-5-yl)benzyl)carbamoyl)pyrrolidin-1-yl)-3,3-dimethyl-1-oxobutan-2-yl) decanoic acid diamide]",,,,,,,10 to 30%,30 to 60%,> 60%,> 60%,,< 30%,30 to 70%,30 to 70%,> 70%,> 70%,
C=C1[C@H](CNC(=O)CN2CCN(CCCC(=O)N[C@H](C(=O)N3C[C@H](O)C[C@H]3C(=O)NCc3ccc(-c4scnc4C)cc3)C(C)(C)C)CC2)[C@H](O)C[C@@H]1n1cnc2c(=O)[nH]c(N)nc21 [Compound VII],,,,,,,10 to 30%,10 to 30%,30 to 60%,30 to 60%,,< 30%,< 30%,< 30%,30 to 70%,30 to 70%,
C=C1[C@H](CO)[C@H](O)C[C@@H]1n1cnc2c(OCCOCCOCCCC(=O)N[C@H](C(=O)N3C[C@H](O)C[C@H]3C(=O)NCc3ccc(-c4scnc4C)cc3)C(C)(C)C)nc(N)nc21 [Compound V],,,,,,,10 to 30%,30 to 60%,30 to 60%,30 to 60%,,< 30%,30 to 70%,30 to 70%,30 to 70%,30 to 70%,
C=C1[C@H](CO)[C@H](O)C[C@@H]1n1cnc2c(OCCN3CCC(CCCC(=O)N[C@H](C(=O)N4C[C@H](O)C[C@H]4C(=O)NCc4ccc(-c5scnc5C)cc4)C(C)(C)C)CC3)nc(N)nc21 [III],,,,,,,> 60%,> 60%,> 60%,> 60%,,< 30%,< 30%,30 to 70%,30 to 70%,> 70%,
C=C1[C@H](CO)[C@H](O)C[C@@H]1n1cnc2c(OCCN3CCN(CCCC(=O)N[C@H](C(=O)N4C[C@H](O)C[C@H]4C(=O)NCc4ccc(-c5scnc5C)cc4)C(C)(C)C)CC3)nc(N)nc21 [II],,,,,,,10 to 30%,10 to 30%,30 to 60%,> 60%,,< 30%,< 30%,< 30%,30 to 70%,30 to 70%,
C=C1[C@H](CNC(=O)CN2CCC(OCCC(=O)N[C@H](C(=O)N3C[C@H](O)C[C@H]3C(=O)NCc3ccc(-c4scnc4C)cc3)C(C)(C)C)CC2)[C@H](O)C[C@@H]1n1cnc2c(=O)[nH]c(N)nc21 [IX],,,,,,,30 to 60%,30 to 60%,> 60%,> 60%,,,,,,,
"CC(C)C[C@@H](C=O)NC(=O)[C@H](CC(C)C)NC(=O)[C@H](CC(C)C)NC(=O)OCc1ccccc1 [MG132, reference compound] (Cbz-Leu-Leu-Leu-aldehyde)",,,,,,,,,,,,,,,,,inhibited drug degradation
C=C1[C@H](CNC(=O)CN2CCC(CCCC(=O)N[C@H](C(=O)N3C[C@H](O)C[C@H]3C(=O)NCc3ccc(-c4scnc4C)cc3)C(C)(C)C)CC2)[C@H](O)C[C@@H]1n1cnc2c(=O)[nH]c(N)nc21 [VIII],,,,,,,30 to 60%,30 to 60%,30 to 60%,> 60%,,< 30%,< 30%,30 to 70%,30 to 70%,> 70%,
"C=C1[C@H](CO)[C@@H](O)C[C@@H]1n1cnc2c(=O)[nH]c(N)nc21 [entecavir, reference compound]",significant inhibitory effect on virus replication,,,,significantly inhibit virus replication,significant inhibitory effect on virus replication,,,,,,,,,,,
